Assay results from article PMC8821558, “Cryo-EM structures of human bradykinin receptor-Gq proteins complexes” (Nature Communications, 2022).

How the values were obtained:
[1] = target: T1, wild-type human B2R with wild-type Gq (Homo sapiens, UniProt P30411); assay: Calcium mobilization, CHO cells, WT-B2R & WT-Gq (Calcium-5 kit, Flexstation 3, ex 485/em 525 nm); assay type: cell-based; settings: kallidin-induced calcium mobilization, Mean±S.E.M. from three independent experiments
T1 construct: expressed in transfected cells; host or cells: CHO cells
Description: (§1) CHO cells transfected with wild-type or mutated B2R and wild-type or mutated Gq were seeded into 96-well black plates at a density of 30,000 cells per well and incubated for 24 h. Then cells were loaded with reagents from Calcium-5 Assay Kit (Molecular Devices) for 45 min at 37 °C in 5% CO2 according to the manufacturer’s protocol. […] Data were analyzed by GraphPad Prism 5 and presented as Mean ± S.E.M. from three independent experiments.
Supplementary Table 1 . Calcium mobilization results of WT and mutated constructs. Emax and pEC50 values were presented as Mean±S.E.M. from three independent experiments. Source data are provided as a Source Data file.
Supplementary Table 3. […] Emax and […]
(§2) pEC50 values were presented as Mean±S.E.M. from three independent experiments.
(§3) NA represented not available. Source data are provided as a Source Data file.

[2] = target: T2, wild-type human B2R with CryoEM Gq (R183Q, Q209L) (Homo sapiens, UniProt P30411); assay: Calcium mobilization, CHO cells, WT-B2R & CryoEM-Gq; assay type: cell-based; settings: kallidin-induced calcium mobilization, Mean±S.E.M. from three independent experiments
T2 construct: expressed in transfected cells; host or cells: CHO cells
T2 sequence (P30411 1-391): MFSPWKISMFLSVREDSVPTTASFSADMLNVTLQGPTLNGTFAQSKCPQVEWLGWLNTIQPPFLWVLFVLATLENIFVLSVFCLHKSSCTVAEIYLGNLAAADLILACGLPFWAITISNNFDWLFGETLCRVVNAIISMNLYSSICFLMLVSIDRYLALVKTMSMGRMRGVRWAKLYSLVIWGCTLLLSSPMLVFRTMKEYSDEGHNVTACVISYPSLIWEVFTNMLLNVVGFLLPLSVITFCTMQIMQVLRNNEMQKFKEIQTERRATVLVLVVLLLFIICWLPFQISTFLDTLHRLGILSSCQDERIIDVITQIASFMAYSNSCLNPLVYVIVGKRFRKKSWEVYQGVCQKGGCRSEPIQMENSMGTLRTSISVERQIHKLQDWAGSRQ
Description: (§4) There was a 10xHis tag at the N-terminus of each subunit.
as §1
(§5) Supplementary Table 1 . Calcium mobilization results of WT and mutated
(§6) constructs. Emax and pEC50 values were presented as Mean±S.E.M. from three
(§7) independent experiments. Source data are provided as a Source Data file.

[3] = target: T3, CryoEM B2R (MBP fusion) with CryoEM Gq (R183Q, Q209L) (Homo sapiens, UniProt P30411); assay: Calcium mobilization, CHO cells, CryoEM-B2R & CryoEM-Gq; assay type: cell-based; settings: kallidin-induced calcium mobilization, Mean±S.E.M. from three independent experiments
T3 construct: HA tag (N); 10xHis tag + TEV site (N); expressed in transfected cells; host or cells: CHO cells
T3 sequence (P30411 29-391): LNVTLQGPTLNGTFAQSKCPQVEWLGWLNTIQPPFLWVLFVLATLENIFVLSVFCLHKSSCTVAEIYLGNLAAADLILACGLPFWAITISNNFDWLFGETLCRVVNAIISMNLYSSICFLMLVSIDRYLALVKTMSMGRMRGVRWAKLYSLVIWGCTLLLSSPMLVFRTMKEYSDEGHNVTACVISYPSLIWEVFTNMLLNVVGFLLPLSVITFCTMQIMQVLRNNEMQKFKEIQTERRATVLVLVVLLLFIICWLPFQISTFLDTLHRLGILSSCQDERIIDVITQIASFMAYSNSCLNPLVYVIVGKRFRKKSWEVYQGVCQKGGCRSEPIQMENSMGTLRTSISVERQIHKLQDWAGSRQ
T3 sequence (P50148 1-359 R183Q/Q209L partner): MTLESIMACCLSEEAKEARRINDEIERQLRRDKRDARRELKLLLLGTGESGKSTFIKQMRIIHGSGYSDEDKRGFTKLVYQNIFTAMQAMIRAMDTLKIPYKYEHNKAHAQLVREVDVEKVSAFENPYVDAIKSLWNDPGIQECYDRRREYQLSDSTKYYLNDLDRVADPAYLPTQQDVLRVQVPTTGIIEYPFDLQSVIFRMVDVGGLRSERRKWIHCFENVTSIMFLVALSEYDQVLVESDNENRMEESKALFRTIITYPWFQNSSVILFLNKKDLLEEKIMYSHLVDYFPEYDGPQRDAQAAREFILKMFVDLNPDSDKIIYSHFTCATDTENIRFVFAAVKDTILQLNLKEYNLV
Description: as §4, §1, §5, §6, §7

B2R W113A = target: T4, B2R W113A (Homo sapiens, UniProt P30411, W113A); assay: Calcium mobilization, CHO cells, B2R W113A; assay type: cell-based
T4 construct: expressed in transfected cells; host or cells: CHO cells
Description: as §1
(§8) Supplementary Table 3. […] Emax and
as §2, §3

B2R F121A = target: T5, B2R F121A (Homo sapiens, UniProt P30411, F121A); assay: Calcium mobilization, CHO cells, B2R F121A; assay type: cell-based
T5 construct: expressed in transfected cells; host or cells: CHO cells
Description: as §1, §8, §2, §3

B2R Y201A = target: T6, B2R Y201A (Homo sapiens, UniProt P30411, Y201A); assay: Calcium mobilization, CHO cells, B2R Y201A; assay type: cell-based
T6 construct: expressed in transfected cells; host or cells: CHO cells
Description: as §1, §8, §2, §3

B2R F286A = target: T7, B2R F286A (Homo sapiens, UniProt P30411, F286A); assay: Calcium mobilization, CHO cells, B2R F286A; assay type: cell-based
T7 construct: expressed in transfected cells; host or cells: CHO cells
Description: as §1, §8, §2, §3

B2R R297A = target: T8, B2R R297A (Homo sapiens, UniProt P30411, R297A); assay: Calcium mobilization, CHO cells, B2R R297A; assay type: cell-based
T8 construct: expressed in transfected cells; host or cells: CHO cells
Description: as §1, §8, §2, §3

B2R Y322A = target: T9, B2R Y322A (Homo sapiens, UniProt P30411, Y322A); assay: Calcium mobilization, CHO cells, B2R Y322A; assay type: cell-based
T9 construct: expressed in transfected cells; host or cells: CHO cells
Description: as §1, §8, §2, §3

B2R E204A = target: T10, B2R E204A (Homo sapiens, UniProt P30411, E204A); assay: Calcium mobilization, CHO cells, B2R E204A; assay type: cell-based
T10 construct: expressed in transfected cells; host or cells: CHO cells
Description: as §1, §8, §2, §3

B2R I213A = target: T11, B2R I213A (Homo sapiens, UniProt P30411, I213A); assay: Calcium mobilization, CHO cells, B2R I213A; assay type: cell-based
T11 construct: expressed in transfected cells; host or cells: CHO cells
Description: as §1, §8, §2, §3

B2R S289A = target: T12, B2R S289A (Homo sapiens, UniProt P30411, S289A); assay: Calcium mobilization, CHO cells, B2R S289A; assay type: cell-based
T12 construct: expressed in transfected cells; host or cells: CHO cells
Description: as §1, §8, §2, §3

B2R T290A = target: T13, B2R T290A (Homo sapiens, UniProt P30411, T290A); assay: Calcium mobilization, CHO cells, B2R T290A; assay type: cell-based
T13 construct: expressed in transfected cells; host or cells: CHO cells
Description: as §1, §8, §2, §3

B2R D293A = target: T14, B2R D293A (Homo sapiens, UniProt P30411, D293A); assay: Calcium mobilization, CHO cells, B2R D293A; assay type: cell-based
T14 construct: expressed in transfected cells; host or cells: CHO cells
Description: as §1, §8, §2, §3

B2R D311A = target: T15, B2R D311A (Homo sapiens, UniProt P30411, D311A); assay: Calcium mobilization, CHO cells, B2R D311A; assay type: cell-based
T15 construct: expressed in transfected cells; host or cells: CHO cells
Description: as §1, §8, §2, §3

B2R Q315A = target: T16, B2R Q315A (Homo sapiens, UniProt P30411, Q315A); assay: Calcium mobilization, CHO cells, B2R Q315A; assay type: cell-based
T16 construct: expressed in transfected cells; host or cells: CHO cells
Description: as §1, §8, §2, §3

B2R = settings: cited from earlier work
Text: The kallikrein-kinin system (KKS) consists of kininogens, kallikrein enzymes, kinins, type 1 and type 2 bradykinin receptors (B1R and B2R), which plays important roles in vasodilation, inflammation, vascular permeability, cardioprotection, coagulation, and pain[1]–[4]. Kinins are short-lived peptides of various lengths and they are produced by enzymatic hydrolysis of precursor kininogens. […] Both kinins ...

T13 sequence (P30411 whole entry T290A): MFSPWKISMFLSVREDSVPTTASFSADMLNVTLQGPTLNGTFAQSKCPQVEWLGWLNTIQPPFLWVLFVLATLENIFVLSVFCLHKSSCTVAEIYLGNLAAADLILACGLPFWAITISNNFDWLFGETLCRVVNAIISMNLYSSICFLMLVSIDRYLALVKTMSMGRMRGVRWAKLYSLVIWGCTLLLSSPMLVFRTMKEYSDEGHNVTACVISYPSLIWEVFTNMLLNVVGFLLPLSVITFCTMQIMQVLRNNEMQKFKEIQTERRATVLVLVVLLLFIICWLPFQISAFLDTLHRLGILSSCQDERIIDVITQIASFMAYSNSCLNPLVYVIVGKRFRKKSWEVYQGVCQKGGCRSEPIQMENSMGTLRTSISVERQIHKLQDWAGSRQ
T13 sequence (P50148 whole entry partner): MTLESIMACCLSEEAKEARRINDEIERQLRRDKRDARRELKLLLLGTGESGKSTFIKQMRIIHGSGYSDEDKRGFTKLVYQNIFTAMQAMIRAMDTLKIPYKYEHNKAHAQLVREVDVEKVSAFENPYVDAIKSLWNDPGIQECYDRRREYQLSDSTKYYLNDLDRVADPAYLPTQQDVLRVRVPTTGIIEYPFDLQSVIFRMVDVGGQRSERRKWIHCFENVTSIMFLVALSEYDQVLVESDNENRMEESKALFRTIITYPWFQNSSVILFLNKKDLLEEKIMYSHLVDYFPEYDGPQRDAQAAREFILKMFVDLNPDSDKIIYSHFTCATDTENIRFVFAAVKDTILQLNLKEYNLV
T13 sequence (P62873 2-340 partner limits assumed): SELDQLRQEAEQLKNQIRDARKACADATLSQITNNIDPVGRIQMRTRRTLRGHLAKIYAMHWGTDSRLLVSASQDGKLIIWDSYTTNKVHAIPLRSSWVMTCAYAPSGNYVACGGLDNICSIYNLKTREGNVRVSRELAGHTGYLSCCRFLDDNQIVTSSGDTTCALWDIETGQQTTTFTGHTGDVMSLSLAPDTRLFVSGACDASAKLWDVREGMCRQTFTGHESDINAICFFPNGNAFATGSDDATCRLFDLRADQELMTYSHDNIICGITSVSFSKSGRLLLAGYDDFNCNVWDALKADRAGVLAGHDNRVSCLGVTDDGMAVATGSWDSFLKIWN
T13 sequence (P59768 2-68 partner limits assumed): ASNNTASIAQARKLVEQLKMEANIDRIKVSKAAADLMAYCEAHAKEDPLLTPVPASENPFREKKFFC
T11 sequence (P30411 whole entry I213A): as the sequence (P30411 whole entry T290A) above, with I213A, A290T counted along it
T11 sequence (P50148 whole entry partner): as the sequence (P50148 whole entry partner) above
T11 sequence (P62873 2-340 partner limits assumed): as the sequence (P62873 2-340 partner limits assumed) above
T11 sequence (P59768 2-68 partner limits assumed): as the sequence (P59768 2-68 partner limits assumed) above
T9 sequence (P30411 whole entry Y322A): as the sequence (P30411 whole entry T290A) above, with A290T, Y322A counted along it
T9 sequence (P50148 whole entry partner): as the sequence (P50148 whole entry partner) above
T9 sequence (P62873 2-340 partner limits assumed): as the sequence (P62873 2-340 partner limits assumed) above
T9 sequence (P59768 2-68 partner limits assumed): as the sequence (P59768 2-68 partner limits assumed) above
T4 sequence (P30411 whole entry W113A): as the sequence (P30411 whole entry T290A) above, with W113A, A290T counted along it
T4 sequence (P50148 whole entry partner): as the sequence (P50148 whole entry partner) above
T4 sequence (P62873 2-340 partner limits assumed): as the sequence (P62873 2-340 partner limits assumed) above
T4 sequence (P59768 2-68 partner limits assumed): as the sequence (P59768 2-68 partner limits assumed) above

Compound	EC50 [1]	EC50 [2]	EC50 [3]	EC50 (B2R W113A)	EC50 (B2R F121A)	EC50 (B2R Y201A)	EC50 (B2R F286A)	EC50 (B2R R297A)	EC50 (B2R Y322A)	EC50 (B2R E204A)	EC50 (B2R I213A)	EC50 (B2R S289A)	EC50 (B2R T290A)	EC50 (B2R D293A)	EC50 (B2R D311A)	EC50 (B2R Q315A)	antagonist class at B2R (B2R)
NCCCC[C@H](N)C(=O)N[C@@H](CCCN=C(N)N)C(=O)N1CCC[C@H]1C(=O)N1CCC[C@H]1C(=O)NCC(=O)N[C@@H](Cc1ccccc1)C(=O)N[C@@H](CO)C(=O)N1CCC[C@H]1C(=O)N[C@@H](Cc1ccccc1)C(=O)N[C@@H](CCCN=C(N)N)C(=O)O [kallidin]	0.753 nM	2.39 nM	6.67 nM	1050 nM	774 nM	92.9 nM	112 nM	1.62 nM	21.5 nM	13 nM	110 nM	1.38 nM	23.7 nM	5.38 nM	16.7 nM	66.7 nM	–
D-Arg-Arg-Pro-Hyp-Gly-Thi-Ser-D-Tic-Oic-Arg [icatibant]	–	–	–	–	–	–	–	–	–	–	–	–	–	–	–	–	B2R selective antagonist
